Measured values published in patent US20110070232A1, “Combination Therapy with an Antitumor Alkaloid” (Pharma Mar, S.A., priority 2008, published 2011).
pIC50: −log10 of the molar value. Read-outs that look alike come from different tables or passages of the source.

Legend:
Hs746T tumors = format: in vivo, mice; conditions: for % Inhibition: mg/kg/day: PM00104 0.90 IV, 5-FU 50 at DPI 15 and 100 at DPI 22 & 29 IP
Source text: Female athymic nude mice (Harlan Sprague Dawley, Madison, Wis.) were utilized for all experiments. Animals were housed in ventilated rack caging with food and water ad libitum. The mice were acclimated for at least 5 days prior to tumor implantation with a tumor cell suspension.
The tumor model used in these studies was Hs746T cell line, which was obtained from the ATCC (Manassas, Va.).
Treatments were initiated on DPI 15.
5-FU was provided as a solution which was further diluted with water for injection.
(§1) Tumor size measurements were recorded twice weekly from the treatment initiation until the termination of the study.
(§2) Mean, standard deviation and standard error of the mean were determined for tumor volume for all animal groups at all assessments. Student's t test was performed on tumor volumes at each measurement day, including at the end of the study, to determine whether there were any statistically significant differences between combination treatment groups and single monotherapy treatment groups.

MRI-H-254 tumors [1] = format: in vivo, mice; conditions: for % T/C on day 20 / % T/C on day 23 / % T/C on day 26 / % T/C on day 30 / % T/C on day 34 / % T/C on day 36 / % T/C on day 43 / % T/C on day 49 / % T/C on day 56 / % T/C on day 63: PM00104 0.90 IV, DPI 20, 27, 34
Description: (§3) Female athymic nude mice (Harlan Sprague Dawley, Madison, Wis.) were utilized for all experiments. Animals were housed in ventilated rack caging with food and water ad libitum. The mice were acclimated for at least 5 days prior to tumor implantation with tumor fragments.
Bacterial culture was taken on cells used to implant the study.
Treatments were initiated on DPI 20.
5-FU was provided in the form of injection vials which was diluted with 0.9% sterile Saline.
as §1, §2

MRI-H-254 tumors [2] = format: in vivo, mice
Description: as §3
Treatments were initiated on DPI 16.
as §1, §2

NCI-H460 tumors = format: in vivo, mice
Source text: Female athymic nude mice (Harlan Sprague Dawley, Madison, Wis.) were utilized for all experiments. Animals were housed in ventilated rack caging with food and water ad libitum. The mice were acclimated for at least 5 days prior to tumor implantation.
The tumor model used in this study was NCI-H460 cell line which is a human NSCLC cell line obtained from the ATCC (Manassas, Va.). […] Cells from in vitro passage 9 were those implanted SC into study mice.
Treatments were initiated on DPI 8.
Tumor size measurements were recorded 2-3 times/week from the treatment initiation until the termination of the study.
as §2

[3] = test system: BT-474 (breast cancer) cell line; assay: IC50 determination, MIT (tetrazolium) assay, 72 h (Example 18); format: cell-based; conditions: Homo sapiens, BT-474, 72 h
Description: BT-474 cells were grown in RPMI supplemented with 1% ITS (insulin, transferrin and selenium), 10% Fetal Bovine Serum (FBS), 1% penicillin/streptomycin and 2 mM L-glutamine.
Before plating, cell cultures were trypsinized and cell number estimated using an automated flow cytometer.
Cells were harvested and seeded in 96 well microtiter plates at the appropriate cell density (5,000-10,000 cells) in 150 μL of media and incubated for 24 hours to allow the cells to attach before drug addition.
After the incubation period (72 hours), 50 μL of MIT solution was added to each microtiter well and incubated for further 8 hours at 37° C. The culture medium was then removed and 50 μl, of DMSO were added to dissolve the MIT crystals. Optical densities were read at 540 nm on spectrophotometer microplate reader.
IC50 values were calculated from an average of two to four assays for each of the test agents.

[4] = PM00104 0.9, 5-FU 50 (DPI 15) then 100 (DPI 22 & 29), irinotecan 20, doxorubicin 6 mg/kg/day
[5] = 5-FU 100 IP mg/kg/day (G2, G3, G5)
[6] = day 16, PM00104 0.90, cisplatin 3, irinotecan 10, paclitaxel 12.5 mg/kg/day
[7] = day 16, PM00104 0.90, cisplatin 5, irinotecan 18, paclitaxel 25 mg/kg/day
[8] = day 20, PM00104 0.90, cisplatin 3, irinotecan 10, paclitaxel 12.5 mg/kg/day
[9] = day 20, PM00104 0.90, cisplatin 5, irinotecan 18, paclitaxel 25 mg/kg/day
[10] = day 23, PM00104 0.90, cisplatin 3, irinotecan 10, paclitaxel 12.5 mg/kg/day
[11] = day 23, PM00104 0.90, cisplatin 5, irinotecan 18, paclitaxel 25 mg/kg/day
[12] = day 26, PM00104 0.90, cisplatin 3, irinotecan 10, paclitaxel 12.5 mg/kg/day
[13] = day 26, PM00104 0.90, cisplatin 5, irinotecan 18, paclitaxel 25 mg/kg/day
[14] = day 29, PM00104 0.90, cisplatin 3, irinotecan 10, paclitaxel 12.5 mg/kg/day
[15] = day 29, PM00104 0.90, cisplatin 5, irinotecan 18, paclitaxel 25 mg/kg/day
[16] = day 33, PM00104 0.90, cisplatin 3, irinotecan 10, paclitaxel 12.5 mg/kg/day
[17] = day 33, PM00104 0.90, cisplatin 5, irinotecan 18, paclitaxel 25 mg/kg/day
[18] = day 40, PM00104 0.90, cisplatin 3, irinotecan 10, paclitaxel 12.5 mg/kg/day
[19] = day 40, PM00104 0.90, cisplatin 5, irinotecan 18, paclitaxel 25 mg/kg/day
[20] = day 48, PM00104 0.90, cisplatin 3, irinotecan 10, paclitaxel 12.5 mg/kg/day
[21] = day 48, PM00104 0.90, cisplatin 5, irinotecan 18, paclitaxel 25 mg/kg/day
[22] = Gemcitabine 90 mg/kg/day IP, alone or with PM00104 0.9 mg/kg/day IV
[23] = PM00104 0.9 mg/kg/day IV and/or Gemcitabine 180 mg/kg/day IP

## O=c1[nH]cc(F)c(=O)[nH]1 [5-FU, 5-fluorouracil]
Hs746T tumors; [4]
  % T/C on day 15: 102.3%
  % T/C on day 19: 96.4%
  % T/C on day 22: 88.0%
  % T/C on day 26: 93.4%
  % T/C on day 29: 94.5%
  % T/C on day 33: 95.3%
Hs746T tumors; day 15
  % Inhibition: −2.3%
Hs746T tumors; day 19
  % Inhibition: 3.6%
Hs746T tumors; day 22
  % Inhibition: 12.0%
Hs746T tumors; day 26
  % Inhibition: 6.6%
Hs746T tumors; day 29
  % Inhibition: 5.5%
Hs746T tumors; day 33
  % Inhibition: 4.7%
MRI-H-254 tumors [1]; 5-FU 50 IP mg/kg/day (G4, G6)
  % T/C on day 20: 96.0%
  % T/C on day 23: 52.3%
  % T/C on day 26: 47.9%
  % T/C on day 30: 55.3%
  % T/C on day 34: 45.0%
  % T/C on day 36: 45.7%
  % T/C on day 43: 58.1%
  % T/C on day 49: 100.0%
  % T/C on day 56: 117.6%
  % T/C on day 63: 123.9%
MRI-H-254 tumors [1]; [5]
  % T/C on day 20: 101.8%
  % T/C on day 23: 55.2%
  % T/C on day 26: 47.1%
  % T/C on day 30: 36.3%
  % T/C on day 34: 31.6%
  % T/C on day 36: 23.0%
  % T/C on day 43: 30.9%
  % T/C on day 49: 54.6%
  % T/C on day 56: 96.3%
  % T/C on day 63: 107.8%
MRI-H-254 tumors [1]; day 20, PM00104 0.9 and 5-FU 50 mg/kg/day
  % Inhibition: 4.0%
MRI-H-254 tumors [1]; day 20, PM00104 0.9 and 5-FU 100 mg/kg/day
  % Inhibition: −1.8%
MRI-H-254 tumors [1]; day 23, PM00104 0.9 and 5-FU 50 mg/kg/day
  % Inhibition: 47.7%
MRI-H-254 tumors [1]; day 23, PM00104 0.9 and 5-FU 100 mg/kg/day
  % Inhibition: 44.8%
MRI-H-254 tumors [1]; day 26, PM00104 0.9 and 5-FU 50 mg/kg/day
  % Inhibition: 52.1%
MRI-H-254 tumors [1]; day 26, PM00104 0.9 and 5-FU 100 mg/kg/day
  % Inhibition: 52.9%
MRI-H-254 tumors [1]; day 30, PM00104 0.9 and 5-FU 50 mg/kg/day
  % Inhibition: 44.7%
MRI-H-254 tumors [1]; day 30, PM00104 0.9 and 5-FU 100 mg/kg/day
  % Inhibition: 63.7%
MRI-H-254 tumors [1]; day 34, PM00104 0.9 and 5-FU 50 mg/kg/day
  % Inhibition: 55.0%
MRI-H-254 tumors [1]; day 34, PM00104 0.9 and 5-FU 100 mg/kg/day
  % Inhibition: 68.4%
MRI-H-254 tumors [1]; day 36, PM00104 0.9 and 5-FU 50 mg/kg/day
  % Inhibition: 54.3%
MRI-H-254 tumors [1]; day 36, PM00104 0.9 and 5-FU 100 mg/kg/day
  % Inhibition: 77.0%
MRI-H-254 tumors [1]; day 43, PM00104 0.9 and 5-FU 50 mg/kg/day
  % Inhibition: 41.9%
MRI-H-254 tumors [1]; day 43, PM00104 0.9 and 5-FU 100 mg/kg/day
  % Inhibition: 69.1%
MRI-H-254 tumors [1]; day 49, PM00104 0.9 and 5-FU 50 mg/kg/day
  % Inhibition: 0.0%
MRI-H-254 tumors [1]; day 49, PM00104 0.9 and 5-FU 100 mg/kg/day
  % Inhibition: 45.4%
MRI-H-254 tumors [1]; day 56, PM00104 0.9 and 5-FU 50 mg/kg/day
  % Inhibition: −17.6%
MRI-H-254 tumors [1]; day 56, PM00104 0.9 and 5-FU 100 mg/kg/day
  % Inhibition: 3.7%
MRI-H-254 tumors [1]; day 63, PM00104 0.9 and 5-FU 50 mg/kg/day
  % Inhibition: −23.9%
MRI-H-254 tumors [1]; day 63, PM00104 0.9 and 5-FU 100 mg/kg/day
  % Inhibition: −7.8%

## N.N.[Cl][Pt][Cl] [Cisplatin, cisplatin]
MRI-H-254 tumors [2]; [6]
  % Inhibition: 1.6%
  % T/C: 98.4%
MRI-H-254 tumors [2]; [7]
  % Inhibition: −0.5%
  % T/C: 100.5%
MRI-H-254 tumors [2]; [8]
  % Inhibition: 6.6%
  % T/C: 93.4%
MRI-H-254 tumors [2]; [9]
  % Inhibition: 2.2%
  % T/C: 97.8%
MRI-H-254 tumors [2]; [10]
  % Inhibition: 17.0%
  % T/C: 83.0%
MRI-H-254 tumors [2]; [11]
  % Inhibition: 24.7%
  % T/C: 75.3%
MRI-H-254 tumors [2]; [12]
  % Inhibition: 18.5%
  % T/C: 81.5%
MRI-H-254 tumors [2]; [13]
  % Inhibition: 40.1%
  % T/C: 59.9%
MRI-H-254 tumors [2]; [14]
  % Inhibition: 27.0%
  % T/C: 73.0%
MRI-H-254 tumors [2]; [15]
  % Inhibition: 45.7%
  % T/C: 54.3%
MRI-H-254 tumors [2]; [16]
  % Inhibition: 31.4%
  % T/C: 68.6%
MRI-H-254 tumors [2]; [17]
  % Inhibition: 60.5%
  % T/C: 39.5%
MRI-H-254 tumors [2]; [18]
  % Inhibition: 44.7%
  % T/C: 55.3%
MRI-H-254 tumors [2]; [19]
  % Inhibition: 76.2%
  % T/C: 23.8%
MRI-H-254 tumors [2]; [20]
  % Inhibition: 50.8%
  % T/C: 49.2%
MRI-H-254 tumors [2]; [21]
  % Inhibition: 82.9%
  % T/C: 17.1%

## Nc1ccn([C@@H]2O[C@H](CO)[C@@H](O)C2(F)F)c(=O)n1 [Gemcitabine, gemcitabine]
NCI-H460 tumors; [22]
  % T/C on day 8: 108.6%
  % T/C on day 11: 83.2%
  % T/C on day 14: 90.2%
  % T/C on day 18: 65.3%
  % T/C on day 21: 73.4%
  % T/C on day 25: 63.2%
  % T/C on day 28: 76.9%
NCI-H460 tumors; [23]
  % T/C on day 8: 101.3%
  % T/C on day 14: 67.5%
  % T/C on day 18: 52.0%
  % T/C on day 21: 69.3%
  % T/C on day 25: 58.7%
  % T/C on day 28: 56.8%

## CC(=O)O[C@H]1C(=O)[C@@]2(C)[C@H]([C@H](OC(=O)c3ccccc3)[C@]3(O)C[C@H](OC(=O)[C@H](O)[C@@H](NC(=O)c4ccccc4)c4ccccc4)C(C)=C1C3(C)C)[C@]1(OC(C)=O)CO[C@@H]1C[C@@H]2O [paclitaxel]
[3]
  pIC50: 8.77
